Measurements reported in article PMC12080252, “Daphnia magna as an Alternative Model for (Simultaneous) Bioaccumulation and Chronic Toxicity Assessment—Controlled Exposure Study Indicates High Hazard of Heterocyclic PAHs” (Environmental Science & Technology, 2025).
Where “and” joins values, the source holds several entries; their conditions need not be identical. Identical values can stand only once.

Tests used:
[1] = tested on: Daphnia magna; test: Chronic reproduction toxicity test (OECD 211) with passive dosing; type: in vivo; parameters: % inhibition, avr. of vessels: concentration or dose not given beside the values; settings: for EC10: 21-day reproduction inhibition; for #offspring per mother, Total: single vessels (replicates); for #dead offspring per mother, Total: single vessels; for wet weight of parent daphnids, change relative to control: end of 21-d exposure
Method: (§1) Chronic toxicity tests with D. magna were performed according to the OECD guideline 211^2 using the passive dosing method. Two days before the tests, the exposure solution was predosed by shaking 10 PDMS disks loaded with the test substance in 1 L of medium for 48 h. Each test vessel (250 mL) was first flushed with the dosed solution to equilibrate the vessel walls, then filled with 100 mL of test solution, one PDMS disk, and one juvenile D. magna (<24 h old). The tests were conducted in loosely closed bottles to allow for adequate gas exchange and limit evaporation. The exposure medium was changed three times per week, and the animals were fed D. subspicatus daily (0.2 mg C/Daphnia/day). The number of offspring per adult and behavioral or physiological effects (e.g., size, movement, unhatched eggs) were recorded daily (except weekends). Dissolved oxygen, pH and temperature were also measured each week.
(§2) Tests were performed under static conditions (20 °C, 16:8 h light/dark cycle, 1 klux). Each compound was tested in 10 replicates for controls and limit tests (a single high concentration exposure to screen for significant toxic effects) and with 6 or 10 replicates for concentration–response tests. Reuse of silicone disks was included in some experiments (Table S3). Reproductive inhibition was assessed by counting offspring over 21 days. The number of offspring per mother in treatment groups was compared to controls, and the percent inhibition per replicate was used to generate concentration–response curves. A minimum of five concentrations per compound were tested to determine EC10, EC20, and EC50 values. For each test, three sets of polymers were rotated between loading, dosing, and exposure stages (Figure S2). Initial (before animal and food addition) and final (after 2–3 days of exposure, just before the medium change) water concentrations (CW) were monitored, with the latter collected after centrifugation to remove biomass (e.g., algae, carapaces, or feces).
(§3) All data are presented as average ± standard deviation. Student’s t test was used to analyze significance (p-value >0.05 considered insignificant). Concentration–response curve parameters (effective concentrations and confidence limits) and plots were generated using GraphPad Prism software (V6.01, GraphPad Software, La Jolla, CA, USA). The exposure concentrations were log10 transformed before fitting. Then a four parameters logistic model with variable slope was used to obtain EC10, EC20 and EC50 (see section S5 in SI file for details). Effective chemical activities (EA50) for chronic toxicity were calculated as follows: [drawing 1] 1 […]
(§4) S5. Concentration-response curve (CRC) fitting procedure
(§5) GraphPad Prism version 9.5.1 was used to fit CRC and obtain EC10, EC20, EC50 values and their confidence intervals. The exposure concentrations were log10 transformed before fitting. Then a four parameters logistic model with variable slope was used that describes the response as a function of following four parameters: minimum response (the Bottom), maximum response (the Top), the concentration required to cause a response half-way between the minimum and maximum (the EC50) and the slope of the curve […]
(§6) concentration. The Top was constrained to 100, the Bottom was constrained to 0, the HillSlope was not […]
(§7) !"# %& = !"# %&* − , × !"# 3 * 4
(§8) (, + ,((!"# %&'(<=)×-.!!/!"01)
(§9) Figure S7 Concentration-response curves of four NSO-PAHs based on reproductive inhibition during 21-day chronic toxicity tests with D. magna.
(§10) (1 picture or pasted object on this page, not shown here)

[2] = as above; type: in vivo, Daphnia magna; parameters: % inhibition, avr. of vessels: concentration or dose not given beside the values; settings: Daphnia magna, in vivo, other: waterborne exposure by passive dosing from PDMS disks, 21-day test
Method: as §1, §2, §3, §4, §5, §6, §7, §8, §9, §10

[3] = 21-day reproduction test, sheet Test 4-BNF, last treatment block, single replicate vessels 1-6
[4] = BNF avr. medium concentration 0.77 µg/L, 21 days
[5] = BNF avr. medium concentration 2.99 µg/L, 21 days

For c1ccc2c(c1)ccc1oc3ccccc3c12 [BNF, benzo[b]naphtho[1,2-d]furan], the EC10 ([1]; 97.5-2.5% confidence interval in brackets) was 0.91 (0.35-1.67) μg L^-1, the EC10 ([1]; confidence interval in brackets) was 4.17 (1.60-7.63) nmol L^-1 and the “% inhibition, avr. of vessels” value ([1]; 21-day reproduction test, sheet Test 4-BNF, last treatment block, average of 6 vessels) was 35.3%. The “% inhibition (of reproduction, per vessel)” value [1, 3] was 17.3% and 34.4% and 37.2% and 35.8% and 67.2% and 20.1%, the “Total #dead offspring per mother (per vessel)” value [1, 3] was 1 and 0 and the “growth of parent D. magna (wet weight)” value ([1]; 21-day test, p-value <0.05) was “significantly inhibited D. magna growth”. For the same compound, the “%offspring mortality” value ([1]; 21 days) was 0.73%, the “#average live offspring” value ([1]; 21 days, mean of 6 vessels, sheet Test 4-BNF, last treatment block) was 45 and the “LOEC (lowest observed effect concentration, reproduction inhibition)” value ([1]; 21 days, p-value <0.05 vs controls) was 3.0 μg L^–1. For the same compound, the “#total live offspring” value ([1]; 21 days, sum of 6 vessels, sheet Test 4-BNF, last treatment block) was 272, the “#offspring per mother, Total” value ([1]; BNF avr. medium concentration 0.35 µg/L (methanol for dosing 0.063 g/L), 21 days) was 77 and 63 and 72 and 59 and 68 and the “%offspring mortality” value ([1]; BNF avr. medium concentration 0.35 µg/L, 21 days) was 0.25%. For the same compound, the “% inhibition, avr.” value ([1]; BNF avr. medium concentration 0.35 µg/L, 21 days, average of vessels) was 4.4%, the “#average live offspring” value ([1]; BNF avr. medium concentration 0.35 µg/L, 21 days, per mother) was 67 and the “#total live offspring” value ([1]; BNF avr. medium concentration 0.35 µg/L, 21 days, sum of all vessels) was 402. The “#offspring per mother, Total” value ([1]; BNF avr. medium concentration 0.77 µg/L (methanol for dosing 0.125 g/L), 21 days) was 72 and 65 and 81 and 60 and 59, the “%offspring mortality” value [1, 4] was 0.00% and the “% inhibition, avr.” value ([1]; BNF avr. medium concentration 0.77 µg/L, 21 days, average of vessels) was 2.8%. The “#average live offspring” value ([1]; BNF avr. medium concentration 0.77 µg/L, 21 days, per mother) was 68, the “#dead offspring per mother, Total” value [1, 4] was 0 and the “#total live offspring” value ([1]; BNF avr. medium concentration 0.77 µg/L, 21 days, sum of all vessels) was 409. For the same compound, the “#offspring per mother, Total” value ([1]; BNF avr. medium concentration 1.55 µg/L (methanol for dosing 0.25 g/L), 21 days) was 68 and 44 and 67 and 57 and 40, the “%offspring mortality” value ([1]; BNF avr. medium concentration 1.55 µg/L, 21 days) was 0.36% and the “% inhibition, avr.” value ([1]; BNF avr. medium concentration 1.55 µg/L, 21 days, average of surviving vessels) was 21.3%. For the same compound, the “#average live offspring” value ([1]; BNF avr. medium concentration 1.55 µg/L, 21 days, per mother) was 55, the “#total live offspring” value ([1]; BNF avr. medium concentration 1.55 µg/L, 21 days, sum of surviving vessels) was 276 and the “state of the mother animal (parental mortality)” value ([1]; BNF avr. medium concentration 1.55 µg/L, vessel 5, day 16) was “dead”. For the same compound, the “#offspring per mother, Total” value ([1]; BNF avr. medium concentration 2.99 µg/L (methanol for dosing 0.5 g/L), 21 days) was 46 and 49 and 38 and 47 and 60 and 51, the “%offspring mortality” value [1, 5] was 0.00% and the “% inhibition, avr.” value ([1]; BNF avr. medium concentration 2.99 µg/L, 21 days, average of vessels) was 30.8%. The “#average live offspring” value ([1]; BNF avr. medium concentration 2.99 µg/L, 21 days, per mother) was 49, the “#dead offspring per mother, Total” value [1, 5] was 0 and the “#total live offspring” value ([1]; BNF avr. medium concentration 2.99 µg/L, 21 days, sum of all vessels) was 291. For the same compound, the “EA50 (effective chemical activity)” value ([1]; EC50/subcooled liquid solubility, eq 1) was 0.002 unitless, the “Classification according to REACH Annex XIII” value ([1]; chronic EC10 < 10 μg L^–1) was “toxic to aquatic life” and the “CTLBB (critical target lipid body burden)” value ([1]; derived from chronic EC10 using eq 3) was 1.7 μmol g^-1 octanol. The “wet weight of parent daphnids, change relative to control” value (from here on “wet weight … change relative to control”) ([1]; 0.3 µg/L (Fig. S9)) was -11%, the “wet weight … change relative to control” value ([1]; 0.8 µg/L (Fig. S9)) was -23% and the “wet weight … change relative to control” value ([1]; 1.5 µg/L (Fig. S9)) was -12%. The “wet weight … change relative to control” value ([1]; 3.0 µg/L (Fig. S9)) was -33%, the “wet weight … change relative to control” value ([1]; 4.4 µg/L (Fig. S9)) was -38% and the Parent animal mortality ([1]; vessel 5, day 16, sheet Test 4-BNF, last treatment block) was “dead (reported as exposure related)”. For the same compound, the mortality at 21 days, 0.3 µg/L ([2]; 0.3 µg/L (Fig. S8), read-out: % offspring mortality of total offspring) was 0.3%, the mortality at 21 days, 0.8 µg/L ([2]; 0.8 µg/L (Fig. S8), read-out: % offspring mortality of total offspring) was 0% and the mortality at 21 days, 1.5 µg/L ([2]; 1.5 µg/L (Fig. S8), read-out: % offspring mortality of total offspring) was 0.4%. It also gave a mortality at 21 days, 3 µg/L ([2]; 3.0 µg/L (Fig. S8), read-out: % offspring mortality of total offspring) of 0%, a mortality at 21 days, 4.4 µg/L ([2]; 4.4 µg/L (Fig. S8), read-out: % offspring mortality of total offspring) of 0.7% and a mortality at 21 days ([2]; at higher exposure levels, read-out: offspring mortality) of less than 1%.
